BindingDB's records for PubMed 9686407 (Sri International, 1998)
Structures can show the parent of a compound that is named as a salt.

Legend:
[1] = target: T1, 5-hydroxytryptamine receptor 1A (Homo sapiens, UniProt P08908)
T1 sequence (P08908 whole entry): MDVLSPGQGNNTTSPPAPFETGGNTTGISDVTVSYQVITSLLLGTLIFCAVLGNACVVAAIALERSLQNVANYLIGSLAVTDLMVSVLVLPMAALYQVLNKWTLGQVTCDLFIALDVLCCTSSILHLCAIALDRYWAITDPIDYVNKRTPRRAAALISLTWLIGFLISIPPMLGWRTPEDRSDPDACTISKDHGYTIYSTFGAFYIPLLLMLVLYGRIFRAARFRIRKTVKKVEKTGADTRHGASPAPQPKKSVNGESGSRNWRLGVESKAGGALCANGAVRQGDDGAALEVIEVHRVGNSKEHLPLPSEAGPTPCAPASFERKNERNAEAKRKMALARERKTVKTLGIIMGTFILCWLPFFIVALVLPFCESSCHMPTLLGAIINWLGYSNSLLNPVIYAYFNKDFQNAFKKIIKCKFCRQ

[2] = target: T2, 5-hydroxytryptamine receptor 3A (Mus musculus, UniProt P23979)
T2 sequence (P23979 whole entry): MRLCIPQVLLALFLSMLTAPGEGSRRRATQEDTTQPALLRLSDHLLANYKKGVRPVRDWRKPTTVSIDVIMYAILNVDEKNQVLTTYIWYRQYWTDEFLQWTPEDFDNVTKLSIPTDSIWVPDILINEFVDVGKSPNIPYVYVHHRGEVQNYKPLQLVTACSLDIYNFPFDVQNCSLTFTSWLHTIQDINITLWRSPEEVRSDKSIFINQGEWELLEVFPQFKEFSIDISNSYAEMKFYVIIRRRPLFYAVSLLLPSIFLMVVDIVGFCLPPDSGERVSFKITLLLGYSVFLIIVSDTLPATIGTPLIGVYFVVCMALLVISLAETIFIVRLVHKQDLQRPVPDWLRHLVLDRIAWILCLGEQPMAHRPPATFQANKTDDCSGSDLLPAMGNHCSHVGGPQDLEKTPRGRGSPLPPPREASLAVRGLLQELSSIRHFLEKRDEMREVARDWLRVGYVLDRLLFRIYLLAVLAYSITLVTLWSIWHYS

D(1A) dopamine receptor = D(1A) dopamine receptor (Homo sapiens, UniProt P21728)
[3] = target: T3, 5-hydroxytryptamine receptor 2C (Rattus norvegicus, UniProt P08909)
T3 sequence (P08909 whole entry): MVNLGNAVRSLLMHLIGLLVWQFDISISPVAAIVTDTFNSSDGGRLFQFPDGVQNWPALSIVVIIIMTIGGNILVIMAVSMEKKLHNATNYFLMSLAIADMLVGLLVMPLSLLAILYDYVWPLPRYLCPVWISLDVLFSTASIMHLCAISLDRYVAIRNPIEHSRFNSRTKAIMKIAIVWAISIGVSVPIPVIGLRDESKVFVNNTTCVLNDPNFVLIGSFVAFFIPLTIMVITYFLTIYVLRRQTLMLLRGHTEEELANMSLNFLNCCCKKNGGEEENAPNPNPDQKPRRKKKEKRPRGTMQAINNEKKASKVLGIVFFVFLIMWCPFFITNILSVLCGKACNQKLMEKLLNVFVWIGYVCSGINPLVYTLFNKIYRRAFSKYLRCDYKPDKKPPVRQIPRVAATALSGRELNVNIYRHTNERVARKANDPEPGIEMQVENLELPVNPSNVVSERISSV

[4] = target: 5-hydroxytryptamine receptor 2A (Rattus norvegicus, UniProt P14842)
Sequence of 5-hydroxytryptamine receptor 2A (P14842 whole entry): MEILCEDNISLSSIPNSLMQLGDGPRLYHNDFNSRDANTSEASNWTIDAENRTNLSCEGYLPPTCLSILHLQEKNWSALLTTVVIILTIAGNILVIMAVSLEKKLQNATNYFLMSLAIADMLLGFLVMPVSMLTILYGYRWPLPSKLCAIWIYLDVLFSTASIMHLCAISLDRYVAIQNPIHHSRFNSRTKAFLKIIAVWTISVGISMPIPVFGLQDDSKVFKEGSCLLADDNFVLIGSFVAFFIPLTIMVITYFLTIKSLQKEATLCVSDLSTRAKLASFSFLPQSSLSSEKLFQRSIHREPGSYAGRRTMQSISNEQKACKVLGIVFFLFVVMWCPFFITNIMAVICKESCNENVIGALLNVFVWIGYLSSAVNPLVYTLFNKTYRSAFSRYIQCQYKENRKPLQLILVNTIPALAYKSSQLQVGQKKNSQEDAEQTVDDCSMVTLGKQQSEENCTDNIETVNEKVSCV

Sequence of D(1A) dopamine receptor (P21728 whole entry): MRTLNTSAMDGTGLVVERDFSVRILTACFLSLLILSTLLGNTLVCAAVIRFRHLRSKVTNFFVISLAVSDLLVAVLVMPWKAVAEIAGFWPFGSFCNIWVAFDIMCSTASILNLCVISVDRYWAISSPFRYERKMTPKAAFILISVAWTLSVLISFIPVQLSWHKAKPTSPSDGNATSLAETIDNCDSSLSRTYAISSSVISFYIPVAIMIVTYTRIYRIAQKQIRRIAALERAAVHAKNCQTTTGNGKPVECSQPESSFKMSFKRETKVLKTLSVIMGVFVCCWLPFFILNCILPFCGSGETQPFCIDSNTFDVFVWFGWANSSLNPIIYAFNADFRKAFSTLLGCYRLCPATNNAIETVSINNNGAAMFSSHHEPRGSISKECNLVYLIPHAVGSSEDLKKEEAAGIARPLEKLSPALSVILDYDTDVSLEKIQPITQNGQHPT

Row | SMILES | Ki [1] | Ki [2] | Ki (D(1A) dopamine receptor) | Ki [3] | Ki [4]
1 | CCc1cc(Cl)c(OC)c(C(=O)NC[C@@H]2CCCN2CC)c1O [3-Chloro-5-ethyl-N-((S)-1-ethyl-pyrrolidin-2-ylmethyl)-6-hydroxy-2-methoxy-benzamide] | 1.79 µM | > 10 µM | > 10 µM | > 10000 nM | 705 nM
2 | Fc1ccc(C(OCCN2CCN(CCCc3ccccc3)CC2)c2ccc(F)cc2)cc1 [Vanoxerine] | 4.68 µM | > 10 µM | > 10 µM | > 10000 nM | 161 nM
3 | Cc1nccn1CC1CCc2c(c3ccccc3n2C)C1=O (stereo unspecified) [NSC_68647] | > 10 µM | 0.015 µM | > 10 µM |  | 
4 | COC(=O)[C@H]1[C@@H](OC(=O)c2ccccc2)C[C@@H]2CC[C@H]1N2C [Cocaine (-)] | > 10 µM | > 10 µM | > 10 µM | > 10000 nM | > 10000 nM
5 | COc1ccccc1N1CCN(CCCCN2C(=O)c3ccccc3C2=O)CC1 [2-{4-[4-(2-Methoxy-phenyl)-piperazin-1-yl]-butyl}-isoindole-1,3-dione] |  | > 10 µM | 4.51 µM | 4120 nM | 549 nM
6 | CCCN1CCCC(c2cccc(O)c2)C1 (stereo unspecified) [CAS_85976-54-1] | 4.17 µM | > 10 µM | > 10 µM | > 10000 nM | 5990 nM
7 | Cc1[nH]c2ccc(O)cc2c1CCN |  | 0.995 µM | > 10 µM | 1370 nM | > 10000 nM
8 | c1ccc2c(c1)OCC(C1=NCCN1)O2 (stereo unspecified) | 0.662 µM | > 10 µM | > 10 µM | > 10000 nM | > 10000 nM
9 | O=C(CCCN1CCC2(CC1)C(=O)NCN2c1ccccc1)c1ccc(F)cc1 [8-[4-(4-fluorophenyl)-4-oxidanylidene-butyl]-1-phenyl-1,3,8-triazaspiro[4.5]decan-4-one] |  | > 10 µM |  |  | 
10 | C=CCN1CCc2cc(O)c(O)cc2C(c2ccccc2)C1 (stereo unspecified) | 2.11 µM |  |  | 3040 nM | 2700 nM
11 | CC(C)(C)[C@]1(O)CCN2C[C@H]3c4ccccc4CCc4cccc(c43)[C@@H]2C1 | 0.528 µM | > 10 µM |  | 1060 nM | 5.2 nM
12 | CNc1cc(OC)c(C(=O)N[C@H]2CCN(Cc3ccccc3)[C@H]2C)cc1Cl [Nemonapride] |  | 0.526 µM |  | 3120 nM | 58 nM
13 | C#CCN(C)[C@H](C)Cc1ccccc1 [US8633208, Deprenyl] | > 10 µM | > 10 µM | > 10 µM | > 10000 nM | 5640 nM
14 | CC(N)Cc1ccc2c(c1)OCO2 (stereo unspecified) | > 10 µM | > 10 µM | > 10 µM |  | 
15 | C=CCN1CCc2c(cc(O)c(O)c2Cl)C(c2ccccc2)C1 (racemic) [SKF 82958] | 1.78 µM | > 10 µM |  | 4630 nM | 1300 nM
16 | CN1CCc2cccc3c2[C@H]1Cc1ccc(O)c(O)c1-3 [APOKYN] |  | > 10 µM |  | 1100 nM | 4380 nM
17 | O=c1[nH]c2ccccc2n1C1CCN(CCCC(c2ccc(F)cc2)c2ccc(F)cc2)CC1 [1-(1-(4,4-bis(4-fluorophenyl)butyl)piperidin-4-yl)-1H-benzo[d]imidazol-2(3H)-one] |  | 3.29 µM |  | 5790 nM | 49 nM
18 | NC(Cc1ccc(O)c(O)c1)C(=O)O (stereo unspecified) [2-amino-3-(3,4-dihydroxyphenyl)propanoic acid] |  | > 10 µM |  | > 10000 nM | > 10000 nM
19 | CCCN1CCC[C@@H]2Cc3n[nH]cc3C[C@H]21 [NSC_54562] | 1.71 µM | > 10 µM |  | > 10000 nM | > 10000 nM
20 | COC(=O)[C@@H]1[C@H]2C[C@H]3c4[nH]c5ccccc5c4CCN3C[C@@H]2CC[C@@H]1O [yohimbic acid methyl ester] |  |  |  | > 10000 nM | 
21 | OCCN1CCN(CC/C=C2/c3ccccc3Sc3ccc(C(F)(F)F)cc32)CC1 [(cis) 2-{4-[3-(2-Trifluoromethyl-thioxanthen-9-ylidene)-propyl]-piperazin-1-yl}-ethanol(Flupentixol)] | 8.03 µM | > 10 µM |  | 295 nM | 

Row | SMILES | Ki [1] | Ki [2] | Ki (D(1A) dopamine receptor) | Ki [3] | Ki [4]
22 | c1ccc2nc(N3CCNCC3)ccc2c1 [2-Piperazin-1-yl-quinoline (Quipazine)] |  | 0.0032 µM | > 10 µM | 653 nM | 92 nM
23 | CN1CCc2cc(Cl)c(O)cc2[C@@H](c2ccccc2)C1 [SCH 23390,R(+)] | 0.661 µM | 3.91 µM |  | 51 nM | 12.2 nM
24 | CCN1CCCC1CNC(=O)c1cc(S(N)(=O)=O)ccc1OC (stereo unspecified) [N-[(1-ethylpyrrolidin-2-yl)methyl]-2-methoxy-5-sulfamoylbenzamide] | > 10 µM | > 10 µM | > 10 µM |  | 
25 | NCCc1ccc(O)c(O)c1 | 8.25 µM | > 10 µM |  | > 10000 nM | > 10000 nM
26 | CCCN(CCC)C1CCc2cccc(O)c2C1 (stereo unspecified) |  | > 10 µM | > 10 µM |  | > 10000 nM
27 | OCCN1CCN(CCCN2c3ccccc3Sc3ccc(C(F)(F)F)cc32)CC1 [2-[4-[3-[2-(trifluoromethyl)phenothiazin-10-yl]propyl]piperazin-1-yl]ethanol;hydrochloride] |  | > 10 µM |  |  | 
28 | C[C@H](N)Cc1ccccc1 [beta-aminopropylbenzene] | 6.61 µM | > 10 µM |  |  | 
29 | CN(C)C/C=C(/c1ccc(Br)cc1)c1cccnc1 [cis-[3-(4-Bromo-phenyl)-3-pyridin-3-yl-allyl]-dimethyl-amine;HCl] |  | > 10 µM |  | 482 nM | 
30 | Oc1cc2c(c(Cl)c1O)CCNC[C@@H]2c1ccccc1 [(R)-6-Chloro-7,8-dihydroxy-1-phenyl-2,3,4,5-tetrahydro-1H-benzo[d]azepinium] | 5.52 µM |  |  | 1510 nM | 3080 nM
31 | CN(C)CCCN1c2ccccc2CCc2ccccc21 | > 10 µM | 3.65 µM | > 10 µM | 106 nM | 
32 | Oc1cc2c(cc1O)[C@@H](c1ccccc1)CNCC2 | 3.1 µM | > 10 µM |  | > 10000 nM | 6160 nM
33 | O=C(c1ccc(F)cc1)C1CCN(CCn2c(=O)[nH]c3ccccc3c2=O)CC1 [3-(2-{4-[(4-fluorophenyl)carbonyl]piperidin-1-yl}ethyl)-1,2,3,4-tetrahydroquinazoline-2,4-dione] |  | > 10 µM |  | 69 nM | 
34 | Cc1ccc(N(CC2=NCCN2)c2cccc(O)c2)cc1 [SMR000059054] |  | 4.29 µM |  | 459 nM | 222 nM
35 | CNCCCN1c2ccccc2CCc2ccccc21 [Desmethylimipramine] |  | 4.4 µM |  | 748 nM | 
36 | CCN(CC)CCNC(=O)c1cc(Cl)c(N)cc1OC [4-amino-5-chloro-N-[2-(diethylamino)ethyl]-2-methoxy-benzamide;hydrochloride] | > 10 µM | 0.353 µM | > 10 µM | 3860 nM | 
37 | CN1Cc2c(N)cccc2[C@H](c2ccccc2)C1 [(+/-)-2-Methyl-4-phenyl-1,2,3,4-tetrahydro-isoquinolin-8-ylamine] | 1.18 µM | > 10 µM | > 10 µM |  | 
38 | N[C@@H]1C[C@H]1c1ccccc1 [Tranylcypromine,(+)] | 5.96 µM | > 10 µM |  | > 10000 nM | > 10000 nM
39 | OCCN1CCN(CC/C=C2/c3ccccc3Sc3ccc(C(F)(F)F)cc32)CC1 [Fluphenthixol] |  |  |  |  | 13 nM
40 | CN[C@@H](C)Cc1ccc2c(c1)OCO2 [MDMA, R(-)] | > 10 µM | > 10 µM | > 10 µM |  | 3910 nM
41 | CN(C)CCCN1c2ccccc2Sc2ccc(Cl)cc21 [[3-(2-Chloro-phenothiazin-10-yl)-propyl]-dimethyl-amine(Chlorpromazine)] |  | 0.82 µM |  |  | 
42 | Cc1nc2sccn2c(=O)c1CCN1CCC(=C(c2ccc(F)cc2)c2ccc(F)cc2)CC1 |  | > 10 µM | 0.933 µM |  | 
